Assay results: ChEMBL document CHEMBL5034037, “Synthesis, Characterization, and Preclinical Evaluation of a Small-Molecule Prostate-Specific Membrane Antigen-Targeted Monomethyl Auristatin E Conjugate” (J Med Chem, 2021)
pIC50: −log10 of the molar value. The source made the active and inactive calls. The calls are words filed in the database; no cut-off is given here. *1 amine or outer side, *2 acyl side, *3 side chain or, on linkers, in order; H or OH if unused. Where a SMILES comes first, the peptide text is derived from it. [ ]: non-standard residue; d: D form. The star is where a group is joined. GluureaLys(ε-3-ClBenzyl) = O=C(O)CC[C@H](NC(=O)N[C@@H](CCCCN(Cc1cccc(Cl)c1)*)C(=O)O)C(=O)O; Dolaproine = CO[C@@H]([C@@H]1CCCN1)[C@@H](C)C(=O)O; Dil = CC[C@H](C)[C@H](NC)[C@@H](CC(=O)O)OC; X1 = O=C(CCCc1cn(CCCN[*:1])nn1)[*:2]; PABC = O=C(OCc1ccc(N[*:1])cc1)[*:2]; X2 = C[C@@H](N*)[C@@H](O)c1ccccc1; Cit = NC(=O)NCCC[C@H](N)C(=O)O; Suc = O=C(CCC(=O)[*:2])[*:1]; NMeV = CN[C@H](C(=O)O)C(C)C; Ahx = NCCCCCC(=O)O

Tests used:
[1] = Toxicity in rabbit assessed as morphological changes in capsule of the kidney at 81 to 122 microg/kg, iv; assay type: tissue-based, Oryctolagus cuniculus; conditions: in vivo, dose 81-122 µg/kg
[2] = Volume of distribution in rabbit at 0.81 mg/kg, iv; assay type: ADME, organism-based, Oryctolagus cuniculus; conditions: in vivo
Salmonella typhimurium [3] = experiment: Mutagenecity in Salmonella typhimurium TA98 in presence of metabolic activation system at 1000 ug/ml by Ames test; assay type: toxicity, organism-based; conditions: salmonella enterica subsp. enterica serovar typhimurium; dose 1000 µg/ml
Salmonella typhimurium [4] = experiment: Mutagenecity in Salmonella typhimurium TA98 in presence of metabolic activation system at 10 ug/ml by Ames test; assay type: toxicity, organism-based; conditions: salmonella enterica subsp. enterica serovar typhimurium; dose 10 µg/ml
[5] = Antitumor activity against human 22Rv1 cells xenografted in mouse assessed as tumour growth inhibition at 10 mg/kg,ip daily treated for 5 days after 18 days of tumor implantation measured upto 10 days; assay type: functional, CWR22R; conditions: 22Rv1, ip, 120 h, time 5 day, read-out: TGI
[6] = Ratio of AUC (t to infinity) to AUC (0 to infinity) in rat at 1.5 mg/kg, iv; assay type: ADME, organism-based; conditions: in vivo
Salmonella typhimurium [7] = experiment: Mutagenecity in Salmonella typhimurium TA98 in presence of metabolic activation system at 1 ug/ml by Ames test; assay type: toxicity, organism-based; conditions: salmonella enterica subsp. enterica serovar typhimurium; dose 1 µg/ml
Cytochrome P450 3A4 [8] = target: T1, Cytochrome P450 3A4 (Homo sapiens, UniProt P08684); experiment: Drug metabolism assessed as human liver microsome CYP3A4-mediatd metabolism; assay type: ADME; conditions: microsomes
Salmonella typhimurium [9] = experiment: Mutagenecity in Salmonella typhimurium TA97 in presence of metabolic activation system at 1000 ug/ml by Ames test; assay type: toxicity, organism-based; conditions: salmonella enterica subsp. enterica serovar typhimurium; dose 1000 µg/ml
[10] = Toxicity in rat assessed as morphological changes in abdominal cavity at 150 to 225 microg/kg, iv; conditions: in vivo, dose 150-225 µg/kg
Salmonella typhimurium [11] = experiment: Mutagenecity in Salmonella typhimurium TA97 in presence of metabolic activation system at 100 ug/ml by Ames test; assay type: toxicity, organism-based; conditions: salmonella enterica subsp. enterica serovar typhimurium; dose 100 µg/ml
Salmonella typhimurium [12] = experiment: Mutagenecity in Salmonella typhimurium TA97 without metabolic activation system at 100 ug/ml by Ames test; assay type: toxicity, organism-based; conditions: salmonella enterica subsp. enterica serovar typhimurium; dose 100 µg/ml
Salmonella typhimurium [13] = experiment: Mutagenecity in Salmonella typhimurium TA98 without metabolic activation system at 1000 ug/ml by Ames test; assay type: toxicity, organism-based; conditions: salmonella enterica subsp. enterica serovar typhimurium; dose 1000 µg/ml
[14] = Toxicity in rat assessed as morphological changes in aortic intima at 150 to 225 microg/kg, iv; conditions: in vivo, dose 150-225 µg/kg
[15] = Chronic toxicity in rabbit assessed as increase in stomach weight at 5.4 microg/kg, iv; assay type: tissue-based, Oryctolagus cuniculus; conditions: in vivo, 0.0054 mg/kg, dose 5.4 µg/kg
[16] = Toxicity in rabbit assessed as local irritation in testes at 81 to 122 microg/kg, iv; parameters: species or system Oryctolagus cuniculus; conditions: in vivo, dose 81-122 µg/kg
[17] = Chronic toxicity in rat assessed as reduced volume of urine at […], iv administered once every 3 weeks for 3 months; assay type: organism-based; conditions: in vivo, 504 h, dose lower 150 mg/kg
[18] = Antitumor activity against human PC-3 cells xenografted in mouse assessed as tumour growth inhibition at 0.3 mg/kg, ip daily treated for 5 days after 18 days of tumor implantation measured upto 15 days; assay type: functional; conditions: PC-3, ip, 120 h, time 5 day, read-out: TGI
Salmonella typhimurium [19] = experiment: Mutagenecity in Salmonella typhimurium TA98 without metabolic activation system at 10000 ug/ml by Ames test; assay type: toxicity, organism-based; conditions: salmonella enterica subsp. enterica serovar typhimurium; dose 10000 µg/ml
[20] = Toxicity in rat assessed as morphological changes in mucosa of thyroid gland at 150 to 225 microg/kg, iv; assay type: tissue-based; conditions: in vivo, dose 150-225 µg/kg
[21] = AUC (0 to infinity) in Wistar rat at 1.5 mg/kg, iv; assay type: ADME, organism-based; parameters: time infinity, route intravenous, dose 1.5 mg/kg; conditions: in vivo
[22] = Toxicity in rat assessed as morphological changes in mucosa of trachea at 150 to 225 microg/kg, iv; assay type: tissue-based; conditions: in vivo, dose 150-225 µg/kg
[23] = Stability of compound in pH 7.4 assessed as hydrolysis measured within 96 hrs; assay type: physicochemical; conditions: buffer, pH 7.4, 96 h
PC-3 [24] = experiment: Cytotoxicity against human PC-3 cells not expressing PMSA measured using MTT assay; assay type: functional
[25] = Toxicity in rabbit assessed as morphological changes in peritoneum at 81 to 122 microg/kg, iv; assay type: tissue-based, Oryctolagus cuniculus; conditions: in vivo, dose 81-122 µg/kg
[26] = Ratio of AUC (t to infinity) to AUC (0 to infinity) in rabbit plasma at 0.81 mg/kg, iv; assay type: ADME, organism-based, Oryctolagus cuniculus; conditions: in vivo
Cytochrome P450 2D6 = Cytochrome P450 2D6 (Homo sapiens, UniProt P10635); experiment: Inhibition of CYP2D6 in human liver microsome using dextromethorphan as substrate; assay type: ADME, microsomes
[27] = AUC (0 to infinity) in rabbit at 0.81 mg/kg, iv; assay type: ADME, organism-based, Oryctolagus cuniculus; parameters: time infinity, route intravenous, dose 0.81 mg/kg; conditions: in vivo
Cytochrome P450 2C9 = Cytochrome P450 2C9 (Homo sapiens, UniProt P11712); experiment: Drug metabolism assessed as human liver microsome CYP2C9-mediatd metabolism; assay type: ADME; conditions: microsomes
[28] = Toxicity in rat assessed as morphological changes in brain sulcus at 150 to 225 microg/kg, iv; assay type: tissue-based; conditions: in vivo, dose 150-225 µg/kg
[29] = Toxicity in rabbit assessed as morphological changes in adrenal gland at 81 to 122 microg/kg, iv; assay type: tissue-based, Oryctolagus cuniculus; conditions: in vivo, dose 81-122 µg/kg
[30] = Clearance in rabbit at 0.81 mg/kg, iv; assay type: ADME, organism-based, Oryctolagus cuniculus; conditions: in vivo
[31] = Toxicity in rat assessed as morphological changes in brain gyrus at 150 to 225 microg/kg, iv; assay type: tissue-based; conditions: in vivo, dose 150-225 µg/kg
Cytochrome P450 3A4 [32] = target: T1, Cytochrome P450 3A4; experiment: Inhibition of CYP3A4 in human liver microsome using midazolam as substrate; assay type: ADME, microsomes
[33] = Toxicity in rabbit morphological change in mucosae of mouth at 81 to 122 microg/kg, iv; assay type: tissue-based, Oryctolagus cuniculus; conditions: in vivo, dose 81-122 µg/kg
Cytochrome P450 2C8 = target: T2, Cytochrome P450 2C8 (Homo sapiens, UniProt P10632); experiment: Drug metabolism assessed as human liver microsome CYP2C8-mediatd metabolism; assay type: ADME; conditions: microsomes
T2 sequence (P10632 whole entry): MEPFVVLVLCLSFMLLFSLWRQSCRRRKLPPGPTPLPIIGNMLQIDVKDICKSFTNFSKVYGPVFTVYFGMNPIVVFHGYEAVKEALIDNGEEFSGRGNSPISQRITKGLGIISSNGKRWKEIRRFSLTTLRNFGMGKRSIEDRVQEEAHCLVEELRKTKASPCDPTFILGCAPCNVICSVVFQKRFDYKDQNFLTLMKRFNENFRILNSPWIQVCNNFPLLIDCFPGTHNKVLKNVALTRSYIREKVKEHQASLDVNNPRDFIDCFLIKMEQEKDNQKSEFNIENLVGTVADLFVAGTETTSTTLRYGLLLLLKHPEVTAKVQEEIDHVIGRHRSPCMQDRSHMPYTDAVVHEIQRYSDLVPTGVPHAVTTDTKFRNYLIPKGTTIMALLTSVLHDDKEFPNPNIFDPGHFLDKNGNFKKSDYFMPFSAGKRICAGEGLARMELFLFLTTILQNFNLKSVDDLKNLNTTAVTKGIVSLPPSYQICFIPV

PC-3 [34] = experiment: Induction morphological changes in human PC-3 cells assessed as decrease in cell membrane stiffness measured upto 1 hr; assay type: functional, cell-based; conditions: time hrs <=1
[35] = Toxicity in rat assessed as morphological changes in liver at 150 to 225 microg/kg, iv; assay type: tissue-based; conditions: in vivo, dose 150-225 µg/kg
[36] = Toxicity in rabbit assessed as morphological changes in abdominal cavity at 81 to 122 microg/kg, iv; parameters: species or system Oryctolagus cuniculus; conditions: in vivo, dose 81-122 µg/kg

T1 sequence (P08684 whole entry): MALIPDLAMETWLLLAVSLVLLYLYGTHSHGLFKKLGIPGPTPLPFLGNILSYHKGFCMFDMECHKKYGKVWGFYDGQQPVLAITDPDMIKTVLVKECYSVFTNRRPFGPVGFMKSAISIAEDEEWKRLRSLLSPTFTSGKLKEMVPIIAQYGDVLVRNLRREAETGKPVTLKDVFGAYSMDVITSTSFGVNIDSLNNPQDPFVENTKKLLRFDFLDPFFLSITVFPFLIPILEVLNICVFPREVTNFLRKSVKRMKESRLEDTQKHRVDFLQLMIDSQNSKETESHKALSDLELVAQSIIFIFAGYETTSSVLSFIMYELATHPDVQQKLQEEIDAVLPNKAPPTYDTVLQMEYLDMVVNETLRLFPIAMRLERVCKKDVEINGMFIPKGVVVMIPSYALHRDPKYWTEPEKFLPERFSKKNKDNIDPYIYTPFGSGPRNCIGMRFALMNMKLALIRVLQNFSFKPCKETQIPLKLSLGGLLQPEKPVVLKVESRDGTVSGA
Cytochrome P450 2D6, sequence (P10635 whole entry): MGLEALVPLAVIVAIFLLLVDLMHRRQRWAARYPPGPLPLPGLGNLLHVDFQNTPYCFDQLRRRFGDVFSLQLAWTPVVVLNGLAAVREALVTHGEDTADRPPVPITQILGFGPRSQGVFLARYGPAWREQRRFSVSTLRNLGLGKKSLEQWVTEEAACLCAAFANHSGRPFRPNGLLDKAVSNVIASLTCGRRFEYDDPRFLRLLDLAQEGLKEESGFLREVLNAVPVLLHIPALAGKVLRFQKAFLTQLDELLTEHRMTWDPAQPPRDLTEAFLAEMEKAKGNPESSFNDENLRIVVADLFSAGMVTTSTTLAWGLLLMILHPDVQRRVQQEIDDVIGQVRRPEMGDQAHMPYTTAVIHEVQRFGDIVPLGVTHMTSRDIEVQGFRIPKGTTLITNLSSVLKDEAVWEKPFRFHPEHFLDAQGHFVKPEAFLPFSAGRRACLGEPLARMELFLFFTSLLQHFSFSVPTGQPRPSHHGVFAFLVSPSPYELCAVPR
Cytochrome P450 2C9, sequence (P11712 whole entry): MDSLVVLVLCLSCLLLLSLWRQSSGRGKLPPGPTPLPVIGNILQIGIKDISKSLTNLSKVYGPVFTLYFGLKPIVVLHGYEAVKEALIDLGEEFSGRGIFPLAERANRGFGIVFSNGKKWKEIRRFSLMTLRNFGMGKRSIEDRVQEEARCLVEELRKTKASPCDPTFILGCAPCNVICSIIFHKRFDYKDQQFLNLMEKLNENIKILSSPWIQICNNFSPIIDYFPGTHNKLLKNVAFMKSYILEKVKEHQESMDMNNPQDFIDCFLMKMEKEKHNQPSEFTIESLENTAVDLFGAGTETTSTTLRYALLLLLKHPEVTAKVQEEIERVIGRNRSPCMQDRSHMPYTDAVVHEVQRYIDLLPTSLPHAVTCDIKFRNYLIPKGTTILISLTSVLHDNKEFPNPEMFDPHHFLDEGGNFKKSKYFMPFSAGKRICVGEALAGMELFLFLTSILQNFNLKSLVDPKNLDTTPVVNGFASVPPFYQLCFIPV

CC[C@H](C)[C@@H]([C@@H](CC(=O)N1CCC[C@H]1[C@H](OC)[C@@H](C)C(=O)N[C@H](C)[C@@H](O)c1ccccc1)OC)N(C)C(=O)[C@@H](NC(=O)[C@H](C(C)C)N(C)C(=O)OCc1ccc(NC(=O)[C@H](CCCNC(N)=O)NC(=O)[C@@H](NC(=O)CCCc2cn(CCCNC(=O)[C@H](Cc3ccc(O)cc3)NC(=O)[C@H](Cc3ccccc3)NC(=O)CCC(=O)NCCCCCC(=O)N(CCCC[C@H](NC(=O)N[C@@H](CCC(=O)O)C(=O)O)C(=O)O)Cc3cccc(Cl)c3)nn2)C(C)C)cc1)C(C)C ({GluureaLys(ε-3-ClBenzyl)-Ahx-Suc}-FY[X1]V[Cit][PABC][NMeV]V[Dil][Dolaproine]-X2)
Activity [1]: Non-Toxic
Vd [2]: 0.158 L/kg
Activity (Salmonella typhimurium [3]): Non-Toxic
Activity (Salmonella typhimurium [4]): Non-Toxic
inhibition in vivo at 10 mg/kg [5]: 84%
Ratio [6]: 14%
Activity (Salmonella typhimurium [7]): Non-Toxic
Drug metabolism (Cytochrome P450 3A4 [8]): Metabolite_Notdetected
Activity (Salmonella typhimurium [9]): Non-Toxic
Activity [10]: Non-Toxic
Activity (Salmonella typhimurium [11]): Non-Toxic
Activity (Salmonella typhimurium [12]): Non-Toxic
Activity (Salmonella typhimurium [13]): Non-Toxic
Activity [14]: Non-Toxic
Activity [15]: Toxic
Activity [16]: Non-Toxic
Activity [17]: Toxic
inhibition in vivo at 0.3 mg/kg [18]: 37.7%
Activity (Salmonella typhimurium [19]): Non-Toxic
Activity [20]: Non-Toxic
AUC(0-inf) [21]: 88000 ng·h/mL
Activity [22]: Non-Toxic
Stability [23]: Stable
CC50 (PC-3 [24]): 0.027 µM
Activity [25]: Non-Toxic
Ratio [26]: 13%
pIC50 (Cytochrome P450 2D6): < 4.60
AUC(0-inf) [27]: 35000 ng·h/mL
Drug metabolism (Cytochrome P450 2C9): Metabolite_Notdetected
Activity [28]: Non-Toxic
Activity [29]: Non-Toxic
clearance [30]: 0.4 mL/min/kg
Activity [31]: Non-Toxic
pIC50 (Cytochrome P450 3A4 [32]): 4.95
Activity [33]: Non-Toxic
Drug metabolism (Cytochrome P450 2C8): Metabolite_Notdetected
Activity (PC-3 [34]): Active
Activity [35]: Non-Toxic
Activity [36]: Non-Toxic
